PubChem BioAssay (NCI)
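Tested at 5 concentrations; 48 h exposure; 96-well plates; endpoints linearly interpolated, else capped at highest concentration. TGI: total growth inhibition.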

How the values were obtained:
Assay in all cases: growth of human tumour cells (NCI), 48 h
786-0 renal = system: 786-0 renal
A549 NSCLC = system: A549 NSCLC
ACHN renal = system: ACHN renal
BT-549 breast = system: BT-549 breast
CAKI-1 renal = system: CAKI-1 renal
CCRF-CEM leukemia = system: CCRF-CEM leukemia
COLO 205 colon = system: COLO 205 colon
DU-145 prostate = system: DU-145 prostate
EKVX NSCLC = system: EKVX NSCLC
HCC-2998 colon = system: HCC-2998 colon
HCT-116 colon = system: HCT-116 colon
HCT-15 colon = system: HCT-15 colon
HL-60(TB) leukemia = system: HL-60(TB) leukemia
HOP-62 NSCLC = system: HOP-62 NSCLC
HOP-92 NSCLC = system: HOP-92 NSCLC
HS 578T breast = system: HS 578T breast
HT29 colon = system: HT29 colon
IGROV1 ovarian = system: IGROV1 ovarian
K-562 leukemia = system: K-562 leukemia
KM12 colon = system: KM12 colon
LOX IMVI melanoma = system: LOX IMVI melanoma
M14 melanoma = system: M14 melanoma
MALME-3M melanoma = system: MALME-3M melanoma
MCF7 breast = system: MCF7 breast
MDA-MB-231 breast = system: MDA-MB-231 breast
MDA-MB-435 = system: MDA-MB-435
MDA-N = system: MDA-N
MOLT-4 leukemia = system: MOLT-4 leukemia
NCI-H226 lung = system: NCI-H226 lung
NCI-H23 lung = system: NCI-H23 lung
NCI-H460 lung = system: NCI-H460 lung
NCI-H522 lung = system: NCI-H522 lung
NCI/ADR-RES ovarian = system: NCI/ADR-RES ovarian
OVCAR-3 ovarian = system: OVCAR-3 ovarian
OVCAR-4 ovarian = system: OVCAR-4 ovarian
OVCAR-5 ovarian = system: OVCAR-5 ovarian
OVCAR-8 ovarian = system: OVCAR-8 ovarian
PC-3 prostate = system: PC-3 prostate
RPMI-8226 leukemia = system: RPMI-8226 leukemia
RXF 393 renal = system: RXF 393 renal
SF-268 CNS = system: SF-268 CNS
SF-295 CNS = system: SF-295 CNS
SF-539 CNS = system: SF-539 CNS
SK-MEL-2 melanoma = system: SK-MEL-2 melanoma
SK-MEL-28 melanoma = system: SK-MEL-28 melanoma
SK-MEL-5 melanoma = system: SK-MEL-5 melanoma
SK-OV-3 ovarian = system: SK-OV-3 ovarian
SN12C renal = system: SN12C renal
SNB-19 CNS = system: SNB-19 CNS
SNB-75 CNS = system: SNB-75 CNS
SR leukemia = system: SR leukemia
SW-620 colon = system: SW-620 colon
T-47D breast = system: T-47D breast
TK-10 renal = system: TK-10 renal
U251 CNS = system: U251 CNS
UACC-257 melanoma = system: UACC-257 melanoma
UACC-62 melanoma = system: UACC-62 melanoma
UO-31 renal = system: UO-31 renal

Measured: TGI

COC1CC(NC(=O)C(F)(F)F)C(OC(C)=O)C(C)O1 (stereo not drawn)
> 100 µM: all assays above
